How the values were obtained:
[1] = test system: silvery thread moss; assay: Field test of spray treatments on silvery thread moss in a creeping bentgrass putting green: percent moss cover; assay type: in vivo, Bryum argenteum
Experimental: (§1) Aqueous solutions of oregano oil extract were tested on silvery thread moss growing on turf grass. The turf grass was a mature stand of “Penncross” creeping bentgrass Agrostis stolonifera L. on a sand based rootzone. IA grid of six inch square plots were arranged on the turf. Each plot was initially rated for percent moss cover on July, 2006. Only plots with greater than 50% moss cover tracked for this test. Table 1 summarized the 79 treatments tested. Oregano oil extract formulations were compared with carefentrazone and a non-treated control. Several oregano oil formulation includes a surfactant, and these formation are marked as ORG AS, ORG BS, ORG CS, and ORG DS. Each formulation was applied as a squirt or pump from a spray bottle containing the formulation. The spray bottle used was one quart bottle that delivered 2.8 ml per pump onto a four inch square are. All of the formulations were applied at least once on Jul. 6, 2006. Sequential applications were also additionally performed bi-weekly on Jul. 20, Aug. 17 and Sep. 12, 2006 for a total of one, three, or four bi-weekly application. Each carefentrazone application was made at a recommended rate of 6.7 fl. Oz. product/A.
(§2) The data from the test were analyzed using PROC ANOVA of the SAS software, Version 8 of the SAS System for Windows (SAS Institute, 1999). Means were separated (alpha=0.05) by Fischer's protected LSD (Fischer, 1966). Turf quality was rated on a scale of 1-10, where 10=best turf with no phyoxicity, 6=lowest acceptable turf quality and turf phytotoxicity, 1=worst turf quality with most phytotosixity and completely brown turf.

[2] = test system: “Penncross” creeping bentgrass Agrostis stolonifera L.; assay: Field test of spray treatments on a creeping bentgrass putting green: turf quality / phytotoxicity rating; assay type: in vivo; conditions: scale 1-10: 10=best turf, no phytotoxicity, 6=lowest acceptable, 1=completely brown turf
Experimental: as §1, §2

| SMILES | % Moss Cover ([1]; 9 Oct (Oct. 9, 2006)) [%] | % Moss Cover ([1]; 12 Sep) [%] | % Moss Cover ([1]; 17 Aug) [%] | Turf Quality ([2]; 9 Oct) | Turf Quality ([2]; 12 Sep) | Turf Quality ([2]; 17 Aug) |
| --- | --- | --- | --- | --- | --- | --- |
| Cc1nn(-c2cc(CC(Cl)C(=O)O)c(Cl)cc2F)c(=O)n1C(F)F (stereo not drawn) [ES11, Carfentrazone] | 77.0 | 65.8 | 82.0 | 10.0 | 10.0 | 10.0 |
| Cc1nn(-c2cc(CC(Cl)C(=O)O)c(Cl)cc2F)c(=O)n1C(F)F (stereo not drawn) [ES13, Carfentrazone] | 63.0 | 75.0 | 81.8 | 10.0 | 10.0 | 10.0 |
| Cc1nn(-c2cc(CC(Cl)C(=O)O)c(Cl)cc2F)c(=O)n1C(F)F (stereo not drawn) [ES16, Carfentrazone] | 55.8 | 61.8 | 55.8 | 10.0 | 10.0 | 10.0 |
| Cc1nn(-c2cc(CC(Cl)C(=O)O)c(Cl)cc2F)c(=O)n1C(F)F (stereo not drawn) [Treatment E11, Carfentrazone] | 48.0 | 66.0 | 60.0 | 10.0 | 10.0 | 10.0 |
| Cc1nn(-c2cc(CC(Cl)C(=O)O)c(Cl)cc2F)c(=O)n1C(F)F (stereo not drawn) [Treatment E13, Carfentrazone] | 70.8 | 73.8 | 68.8 | 10.0 | 10.0 | 9.6 |
| Cc1nn(-c2cc(CC(Cl)C(=O)O)c(Cl)cc2F)c(=O)n1C(F)F (stereo not drawn) [Treatment E16, Carfentrazone] | 55.0 | 59.0 | 58.0 | 9.6 | 10.0 | 10.0 |
